Assay [1] addresses T1, receptor EGFP-NK2R (UniProt P16610).
T1 sequence (P16610 1-390): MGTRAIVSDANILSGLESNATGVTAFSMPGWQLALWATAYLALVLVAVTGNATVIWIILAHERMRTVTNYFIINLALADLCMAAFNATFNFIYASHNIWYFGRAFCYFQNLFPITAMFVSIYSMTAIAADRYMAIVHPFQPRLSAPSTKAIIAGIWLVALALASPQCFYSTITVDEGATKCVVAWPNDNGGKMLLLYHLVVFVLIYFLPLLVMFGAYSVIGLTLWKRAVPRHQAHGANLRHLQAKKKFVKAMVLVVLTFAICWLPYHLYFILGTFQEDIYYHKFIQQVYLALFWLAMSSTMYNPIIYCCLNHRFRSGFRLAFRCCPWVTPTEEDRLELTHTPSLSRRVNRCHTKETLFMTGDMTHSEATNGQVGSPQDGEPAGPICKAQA
The experiment in a line: Dissociation of NKA4-10 TR7 from EGFP-NK2R by fluorescence energy transfer. The class given is binding. More on the design: % al (max): maximum value observed for the increase in amplitude of the rapid dissociation rate; ns = n; other: 20 nM of NK; % al (at 10 μM); other: compou; fused on or other part: EGFP fused to the receptor as FRET donor. The protocol: The x-axis represents time in seconds and the y-axis represents fluorescence.
In the presence of 10 μM of 805, an acceleration of the dissociation is observed characterized by a modification of the amplitudes of the rapid (88%) and slow (12%) dissociation stages.

For assay [2], the target named is T2, wild-type human receptor NK1 (Homo sapiens, UniProt P25103).
T2 construct: expressed in transfected cells; host or cells: HEK 293
Kind of assay: Calcium response caused by substance P in HEK 293 cells expressing NK1 receptor. Particulars: 805 20 μM; substance P 0.1 or 10 nM. The class given is cell-based. The protocol:
In FIGS. 12A and 12B, a suspension (1×10^6 cells/ml) of HEK 293 cells expressing the wild-type human NK1 receptor, and charged with indo-1 (3 μM) is stimulated by 0.1 nM (FIG. 12A) or 10 nM (FIG. 12B) of substance P(SP) in the presence (black circles) and in the absence (white circles) of 805 molecules (20 μM).
The cells are put into suspension at a rate of 1,000,000 cells/ml in Hepes buffer (op. cit.) and arranged in a spectrofluorimeter cuvette. The excitation wavelength is fixed at 338 nm and the emission is recorded at 400 nm. The responses traced are the signals recorded at 400 nm.

The target in assay [3] is T3, receptor EGFP-NK2R (Homo sapiens, UniProt P21452).
T3 sequence (P21452 1-398): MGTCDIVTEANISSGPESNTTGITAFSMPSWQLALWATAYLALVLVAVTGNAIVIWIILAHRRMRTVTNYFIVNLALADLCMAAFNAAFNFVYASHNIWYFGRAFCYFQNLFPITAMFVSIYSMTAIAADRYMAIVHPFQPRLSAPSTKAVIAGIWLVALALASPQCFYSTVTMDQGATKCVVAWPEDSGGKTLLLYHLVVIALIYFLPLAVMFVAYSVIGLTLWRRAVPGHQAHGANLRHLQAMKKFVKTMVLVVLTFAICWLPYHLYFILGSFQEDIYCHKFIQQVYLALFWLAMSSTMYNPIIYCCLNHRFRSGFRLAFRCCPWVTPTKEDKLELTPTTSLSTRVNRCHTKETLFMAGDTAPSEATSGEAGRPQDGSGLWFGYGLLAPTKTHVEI
Kind of assay: Reversion of the binding of NKA-Bo to EGFP-NK2R by fluorescence energy transfer. Particulars: read-out: % bond reversion (50 μM). An excerpt: The amplitude of each relaxation is then given by the adjustment of the experimental traces.

Assay [4] deals with T1, receptor EGFP-NK2R. Kind of assay: cAMP production caused by NKA in HEK 293 cells expressing EGFP-NK2R. Further details: 805 at 10 or 50 μM; NKA alone; fused on or other part: EGFP fused to the receptor. Particulars: read-out: inhibition constant KI of the maximum response of cAMP induced by the NKA; FIG. 9C. The class given is cell-based. On the procedure:
30 mm 6-well cell-culture dishes are treated with collagen then seeded with 50,000 cells expressing the receptor EGFP-NK2R. […] The quantity of cAMP produced (expressed in pmoles/well) is determined according to a radioimmunological process described in Gicquiaux et al. (2002).
On the technique in general: Cyclic AMP is a second messenger, typically raised through Gs and lowered through Gi signalling.

T2 sequence (P25103 whole entry): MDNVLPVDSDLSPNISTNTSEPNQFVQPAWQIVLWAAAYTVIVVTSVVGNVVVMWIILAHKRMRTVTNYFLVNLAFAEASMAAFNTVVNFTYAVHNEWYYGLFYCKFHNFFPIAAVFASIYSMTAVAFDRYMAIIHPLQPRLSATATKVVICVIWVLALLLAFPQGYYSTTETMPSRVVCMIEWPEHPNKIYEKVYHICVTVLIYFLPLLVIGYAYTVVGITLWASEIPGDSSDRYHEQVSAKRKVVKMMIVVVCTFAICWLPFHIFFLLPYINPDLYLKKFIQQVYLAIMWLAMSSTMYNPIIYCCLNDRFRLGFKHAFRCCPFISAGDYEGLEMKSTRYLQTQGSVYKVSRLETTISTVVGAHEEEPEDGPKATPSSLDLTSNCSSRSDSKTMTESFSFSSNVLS

Broadly, the Ki is a measure of affinity in units of concentration, obtained from inhibition or displacement. As to `N#CCN(Cc1ccccc1)Cc1ccc2ccccc2c1` [compound 805, [benzyl(2-naphthylmethyl)amino]acetonitrile], in assay [1] (10 μM of 805, 10° C., 42% without 805), the “amplitude of the slow dissociation of NKA4-10 TR7” value was 12%. In assay [1] (805 at 100 μM, approximately 40% in the absence of 805), the “amplitude of the rapid dissociation of NKA4-10 TR7” value is listed as “up to 90%”. Further, in assay [1] (read-out: concentration which causes a 50% increase in the amplitude of the rapid dissociation of NKA4-10 TR7 (apparent affinity), 10° C.), the EC50 was roughly 20 µM. Moreover, the “effect on the calcium response caused by substance P” value in assay [2] is recorded as “increases the amplitude of the response”. Further, in assay [3], the inhibition at 50 µM amounted to 9%. The Ki in assay [4] is roughly 6 µM.

Values taken from patent US20060194259A1, “Method for isolating an allosteric effector of a receptor” (priority 2002, published 2006).
